Measurements taken from patent US6608109B2, “Composition comprising L-arginine as a muscle growth stimulant and use thereof” (priority 1991, dated 2003).

Experiments:
[1] = Oral administration of M2 / L-arginine to test subjects: side-effects and tolerance; type: in vivo, human; details: L-arginine taken alone on an empty stomach
Excerpt: The subject was placed on L-Arginine M2 therapy.

[2] = Oral administration of M2 to test subjects: muscle mass and bodyfat; type: in vivo, human
Procedure: The above composition (identified as M2) was administered to test subjects. Those tests and the results are described in Example 2.

## N=C(N)NCCCC(N)C(=O)O [L-Arginine, 2-amino-5-guanidinovaleric acid]
[1]
  disadvantages (side effects) from ingestion: headache, diarrhea, flatulence, depletion of electrolytes
[2]; subject (1)
  Therapeutic dose for this subject: 15 grams L-Arginine per day
[2]; subject (2), totally empty stomach: 3+ hours
  dose required for Growth Hormone response out of pituitary gland: 15-20 grams
